These are literature values, as cited in publication PMC7406630, “A new ^68Ga-labeled somatostatin analog containing two iodo-amino acids for dual somatostatin receptor subtype 2 and 5 targeting” (EJNMMI Research, 2020).

Holding throughout (set-up): method as in PMID 29523357
Series [1] addresses T1, human SST5 (Homo sapiens, UniProt P35346).
T1 construct: expressed in transfected cells; host or cells: HEK293 (HEK-SST5)
To be noted: read-out: SST5 EC50, nM (95% CI); cAMP, HEK-SST5 cells; cited from earlier work.

The target in series [2] is T2, human SST2 (Homo sapiens, UniProt P30874).
T2 construct: expressed in transfected cells; host or cells: HEK293 (HEK-SST2)
To be noted: read-out: SST2 IC50, nM (95% CI); HEK-SST2 cells, ^125I-SS-14 radioligand; published earlier but measured head-to-head; cited from earlier work.

Series [3] deals with T1, human SST5. To be noted: read-out: SST5 IC50, nM (95% CI); HEK-SST5 cells, ^125I-SS-14 radioligand; published earlier but measured head-to-head; cited from earlier work.
Series [4] concerns the target T2, human SST2. The following applies: read-out: SST2 EC50, nM (95% CI); cAMP, HEK-SST2 cells; cited from earlier work.

T2 sequence (P30874 whole entry): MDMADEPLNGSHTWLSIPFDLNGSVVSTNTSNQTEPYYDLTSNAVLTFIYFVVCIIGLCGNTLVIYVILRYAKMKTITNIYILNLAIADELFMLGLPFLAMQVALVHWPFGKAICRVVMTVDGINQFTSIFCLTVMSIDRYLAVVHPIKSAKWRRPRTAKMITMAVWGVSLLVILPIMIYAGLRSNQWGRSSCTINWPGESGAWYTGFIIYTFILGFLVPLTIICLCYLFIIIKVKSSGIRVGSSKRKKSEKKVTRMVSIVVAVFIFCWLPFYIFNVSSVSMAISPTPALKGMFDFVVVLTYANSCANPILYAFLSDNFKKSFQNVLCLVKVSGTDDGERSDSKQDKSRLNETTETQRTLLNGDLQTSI
T1 sequence (P35346 whole entry): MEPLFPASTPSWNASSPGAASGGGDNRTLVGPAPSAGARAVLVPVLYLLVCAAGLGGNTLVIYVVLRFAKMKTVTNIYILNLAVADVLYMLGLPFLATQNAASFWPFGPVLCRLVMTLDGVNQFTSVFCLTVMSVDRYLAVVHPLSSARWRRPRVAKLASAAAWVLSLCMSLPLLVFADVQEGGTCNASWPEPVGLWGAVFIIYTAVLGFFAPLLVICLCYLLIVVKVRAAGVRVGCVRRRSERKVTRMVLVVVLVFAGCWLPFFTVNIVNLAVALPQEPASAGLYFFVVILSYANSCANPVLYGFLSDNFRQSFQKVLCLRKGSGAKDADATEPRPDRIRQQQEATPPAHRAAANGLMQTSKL

Usually EC50 stands for the concentration needed to bring the measured effect to its halfway point. A word on the IC50: it is the concentration that inhibits the measured activity by half. Pasireotide: the concentration for a half-maximal effect (EC50) is 0.6 nM on human SST5 [1] and 1.1 nM at human SST2 [4]. Further, the concentration for half-maximal inhibition (IC50) on human SST2 [2] is 3.1 nM; at human SST5 [3], 0.2 nM.
